# Where a SMILES comes first, the peptide text is derived from it. Where no end group is shown, it is not given here. [ ]: non-standard residue; d: D form. The star is where a group is joined. Desaminotyrosyl = O=C(CCc1ccc(O)cc1)*; NMeY = CN[C@@H](Cc1ccc(O)cc1)C(=O)O; Aib = CC(C)(N)C(=O)O; Ava = NCCCCC(=O)O
# Target: ribonucleotide reductase enzyme of herpes simplex virus (Human herpesvirus 1, UniProt P08543)
# Test: not given
# Conditions: Dutia et al. and Cohen et al., Nature 321 (1986); cited from earlier work
row,Compound,inhibition in vitro of enzyme activity
1,Tyr Ala Gly Ala Val Val Asn Asp Leu,inhibited

# Target: T1, ribonucleotide reductase enzyme of herpes simplex virus (Human herpesvirus 1, UniProt P08543)
# T1 sequence (P08543 whole entry, looked up): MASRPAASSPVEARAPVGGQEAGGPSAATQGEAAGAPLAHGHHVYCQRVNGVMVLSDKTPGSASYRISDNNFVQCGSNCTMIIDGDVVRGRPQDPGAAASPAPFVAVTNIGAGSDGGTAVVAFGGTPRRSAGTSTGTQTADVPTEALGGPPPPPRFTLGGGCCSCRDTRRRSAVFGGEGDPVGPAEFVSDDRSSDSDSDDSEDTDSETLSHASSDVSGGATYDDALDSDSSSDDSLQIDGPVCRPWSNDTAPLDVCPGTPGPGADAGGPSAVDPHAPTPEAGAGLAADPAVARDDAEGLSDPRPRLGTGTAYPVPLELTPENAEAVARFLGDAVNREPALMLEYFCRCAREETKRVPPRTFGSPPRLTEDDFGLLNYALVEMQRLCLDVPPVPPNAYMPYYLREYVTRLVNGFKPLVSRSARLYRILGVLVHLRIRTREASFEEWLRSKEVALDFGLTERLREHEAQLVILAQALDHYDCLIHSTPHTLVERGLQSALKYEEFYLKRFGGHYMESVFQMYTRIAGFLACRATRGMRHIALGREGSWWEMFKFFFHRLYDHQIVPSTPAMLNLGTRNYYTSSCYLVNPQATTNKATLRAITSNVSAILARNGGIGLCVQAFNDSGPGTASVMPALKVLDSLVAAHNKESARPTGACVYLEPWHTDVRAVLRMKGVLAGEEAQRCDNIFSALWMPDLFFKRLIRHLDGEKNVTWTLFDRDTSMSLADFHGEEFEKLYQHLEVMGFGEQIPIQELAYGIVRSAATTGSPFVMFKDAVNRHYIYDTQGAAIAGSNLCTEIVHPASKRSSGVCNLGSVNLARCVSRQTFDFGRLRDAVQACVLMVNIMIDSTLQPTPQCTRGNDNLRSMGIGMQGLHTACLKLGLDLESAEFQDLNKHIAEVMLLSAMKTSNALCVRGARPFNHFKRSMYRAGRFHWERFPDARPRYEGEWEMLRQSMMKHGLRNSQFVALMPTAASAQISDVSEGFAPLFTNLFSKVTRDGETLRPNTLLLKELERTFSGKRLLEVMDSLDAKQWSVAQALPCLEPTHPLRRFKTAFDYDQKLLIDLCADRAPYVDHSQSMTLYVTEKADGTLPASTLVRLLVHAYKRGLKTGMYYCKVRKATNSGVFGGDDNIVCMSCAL
# Test: not given
# Conditions: Dutia et al. and Cohen et al., Nature 321 (1986); cited from earlier work
row,Compound,inhibition in vitro of enzyme activity
1,"YGAVVNDL [8-desalanine homolog of the nonapeptide, Dutia et al]",inhibited

# Target: Herpes Simplex Virus Ribonucleotide Reductase (HSV RR) (Human herpesvirus 2, UniProt P89462)
# Test: biochemical
# Conditions: not given
# Protocol: HSV RR was purified from Baby Hamster Kidney cells that were cultured with HSV2 Strain 186. After infection, cells were harvested and lysed. Crude HSV RR was prepared as described by Huszar et al., J. Virol. 37: 580-588(1981) then subjected to further purification by hydroxyapatite column chromotography.
# HSV RR activity was determined as the ability of the enzyme to catalyze the reduction of tritiated cytidine-diphosphate to deoxyribo-cytidine-diphosphate in 30 minutes at 37° C. in the presence of dithiothreitol and MgCl2. Activity of oligopeptide inhibitors was determined by adding them to the reaction mix at the beginning of the incubation. Enzyme was not preincubated with inhibitor.
# Oligopeptides were synthesized by either the solid phase method of Merrified, op. cit., or by FMOC chemistry (John Morrow Stewart and Janis Dillaha Young, "Solid Phase Peptide Synthesis," 2nd ed, 1984, Pierce Chemical Co., Rockford, IL.) and purified to >98% homogeneity by reverse phase HPLC and recovered by lyophilization as trifluoroacetic acid salts. These were analyzed for amino acid composition and in some cases sequenced. Dry peptides were resuspended in 100 mM HEPES (pH 8.0) at about 2 mM, relyophilized, and stored in aliquots at -80° C. Immediately prior to use they were rehydrated with distilled H2 O and centrifuged to remove any undissolved peptide. The concentrations of these stock solutions were then determined by measuring A291 nm at basic pH (ε=2.55) for tyrosine-containing peptides and by quantitative amino acid composition for those peptides without tyrosine.
# Chain of Herpes Simplex Virus Ribonucleotide Reductase (HSV RR) (P89462 whole entry): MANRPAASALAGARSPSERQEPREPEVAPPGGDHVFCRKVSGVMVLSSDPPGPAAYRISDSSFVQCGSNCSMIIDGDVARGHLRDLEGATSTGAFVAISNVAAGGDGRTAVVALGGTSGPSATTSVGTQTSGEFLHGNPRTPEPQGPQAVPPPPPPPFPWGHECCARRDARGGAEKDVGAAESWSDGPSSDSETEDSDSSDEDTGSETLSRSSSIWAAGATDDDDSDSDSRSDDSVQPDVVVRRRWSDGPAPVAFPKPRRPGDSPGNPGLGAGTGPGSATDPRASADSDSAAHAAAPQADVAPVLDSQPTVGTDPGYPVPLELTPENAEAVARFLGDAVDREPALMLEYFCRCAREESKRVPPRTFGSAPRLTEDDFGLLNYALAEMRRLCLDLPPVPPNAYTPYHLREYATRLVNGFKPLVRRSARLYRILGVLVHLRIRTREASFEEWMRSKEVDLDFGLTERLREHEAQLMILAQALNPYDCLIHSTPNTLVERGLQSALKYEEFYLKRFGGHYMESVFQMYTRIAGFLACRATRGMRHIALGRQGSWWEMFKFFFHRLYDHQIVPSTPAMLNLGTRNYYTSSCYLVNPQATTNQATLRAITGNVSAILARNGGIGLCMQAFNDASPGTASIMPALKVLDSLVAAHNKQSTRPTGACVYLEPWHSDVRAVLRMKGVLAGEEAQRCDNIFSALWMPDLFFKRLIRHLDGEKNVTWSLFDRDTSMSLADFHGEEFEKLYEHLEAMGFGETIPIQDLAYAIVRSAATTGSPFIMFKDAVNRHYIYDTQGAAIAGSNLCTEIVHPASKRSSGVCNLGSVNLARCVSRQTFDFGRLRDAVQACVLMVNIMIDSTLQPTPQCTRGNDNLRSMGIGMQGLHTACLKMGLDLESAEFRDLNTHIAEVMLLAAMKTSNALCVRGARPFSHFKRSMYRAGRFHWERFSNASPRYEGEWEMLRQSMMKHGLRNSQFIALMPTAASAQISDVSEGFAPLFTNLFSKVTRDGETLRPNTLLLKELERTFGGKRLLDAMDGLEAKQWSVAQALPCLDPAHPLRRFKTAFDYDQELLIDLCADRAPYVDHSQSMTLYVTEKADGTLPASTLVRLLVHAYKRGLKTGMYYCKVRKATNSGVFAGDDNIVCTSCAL
row,Compound,IC50
1,CN[C@@H](Cc1ccc(O)cc1)C(=O)N[C@H](C(=O)N[C@H](C(=O)N[C@@H](CC(N)=O)C(=O)N[C@@H](CC(=O)O)C(=O)N[C@@H](CC(C)C)C(=O)O)C(C)C)C(C)C [MeNY V V N D L] (H-[NMeY]VVNDL-OH),12 µM
2,COc1ccc(C[C@H](N)C(=O)N[C@H](C(=O)N[C@H](C(=O)N[C@@H](CC(N)=O)C(=O)N[C@@H](CC(=O)O)C(=O)N[C@@H](CC(C)C)C(=O)O)C(C)C)C(C)C)cc1 [MeOY V V N D L] (H-Y(Me)VVNDL-OH),20 µM
3,CC(C)C[C@H](NC(=O)[C@H](CC(=O)O)NC(=O)C(C)(C)NC(=O)[C@@H](NC(=O)[C@@H](NC(=O)[C@H](C)NC(=O)CNC(=O)[C@H](C)NC(=O)[C@@H](N)Cc1ccc(O)cc1)C(C)C)C(C)C)C(=O)O [Y A G A V V J D L] (H-YAGAVV[Aib]DL-OH),200 µM
4,CC(C)C[C@H](NC(=O)[C@H](CC(=O)O)NC(=O)[C@H](CC(N)=O)NC(=O)[C@@H](NC(=O)[C@@H](NC(=O)[C@H](Cc1ccc(O)cc1)NC(=O)CCCCNC(=O)[C@@H](N)Cc1ccc(O)cc1)C(C)C)C(C)C)C(=O)O [YBY V V N D L] (H-Y[Ava]YVVNDL-OH),20 µM
5,CC(C)C[C@H](NC(=O)[C@H](CC(=O)O)NC(=O)[C@H](CC(N)=O)NC(=O)[C@@H](NC(=O)[C@@H](NC(=O)CCc1ccc(O)cc1)C(C)C)C(C)C)C(=O)O [desNH2Y V V N D L],24 µM
6,CC(C)C[C@H](NC(=O)[C@H](CC(=O)O)NC(=O)[C@H](CC(N)=O)NC(=O)[C@@H](NC(=O)[C@@H](NC(=O)[C@H](C)NC(=O)CCc1ccc(O)cc1)C(C)C)C(C)C)C(=O)O [desNH2YA V V N D L] (Desaminotyrosyl-AVVNDL-OH),160 µM
7,AAAVVNDL [A AA V V N D L],77 µM
8,AVVDDL [A V V D D L],195 µM
9,Ac-YVVNDL [AcY V V N D L],18 µM
10,FAGAVVNDL [FA G A V V N D L],56 µM
11,FVVNDL [F V V N D L],65 µM
12,HVVNDL [H V V N D L],46 µM
13,KKLEEFLKVVNDL [K K L E E FLK V V N D L],200 µM
14,WVVNDL [W V V N D L],17 µM
15,YAAVVNDL [YAA V V N D L],112 µM
16,YAGYVVNDL [Y A G Y V V N D L],8 µM
17,YAPAVVNDL [Y A PA V V N D L],14 µM
18,YVVNDL [Y V V N D L],15 µM
